Patent US20100041892A1, “Therapeutic agent for diabetes” (priority 2005, published 2010)
Where a name gives a salt, the structure may show the parent alone.

| Structure (SMILES) | melting point |
| --- | --- |
| CCCCCS(=O)(=O)NC(=O)/C=C/c1ccc(OCCO[Si](C(C)C)(C(C)C)C(C)C)cc1Oc1ncc(C(F)(F)F)cc1Cl | 106 to 108 °C |
| CCCCCS(=O)(=O)NC(=O)/C=C/c1ccc(OCC(C)(C)O)cc1Oc1ncc(C(F)(F)F)cc1Cl (as salt: acetate) (hydrate or solvate) [Example 250, (2E)-3-[2-{[3-chloro-5-(trifluoromethyl)pyridin-2-yl]oxy}-4-(2-hydroxy-2-methylpropoxy)phenyl]-N-(pentylsulfonyl)acrylamide] | 98 to 100 °C |
| CCCCCS(=O)(=O)NC(=O)/C=C/c1ccc(OCCO[Si](c2ccccc2)(c2ccccc2)C(C)(C)C)cc1Oc1ncc(C(F)(F)F)cc1Cl (hydrate or solvate) | 108 to 108.5 °C |
| COCCOc1ccc(CCCOC(=O)NS(=O)(=O)c2ccc(C)cc2)c(Oc2ncc(C(F)(F)F)cc2Cl)c1.O (hydrate or solvate) [Example 30, 3-[2-{[3-chloro-5-(trifluoromethyl)pyridin-2-yl]oxy}-4-(2-methoxyethoxy)phenyl]propyl [(4-methylphenyl)sulfonyl]carbamate monohydrate] | 118 to 120 °C |
| COCCOc1ccc(/C=C/COC(=O)NS(=O)(=O)c2ccc(Cl)cc2)c(Oc2ncc(C(F)(F)F)cc2Cl)c1.O.O (hydrate or solvate) [Example 37, (2E)-3-[2-{[3-chloro-5-(trifluoromethyl)pyridin-2-yl]oxy}-4-(2-methoxyethoxy)phenyl]-2-propen-1-yl [(4-chlorophenyl)sulfonyl]carbamate dihydrate] | 174.5 °C (dec.) |
| COCCOc1ccc(CCCNS(C)(=O)=O)c(Oc2ncc(C(F)(F)F)cc2Cl)c1 [Example 15, N-{3-[2-{[3-chloro-5-(trifluoromethyl)pyridin-2-yl]oxy}-4-(2-methoxyethoxy)phenyl]propyl}methanesulfonamide] | 89 to 90 °C |
| COCCOc1ccc(CCCNS(=O)(=O)c2ccccc2)c(Oc2ncc(C(F)(F)F)cc2Cl)c1 [Example 16, N-{3-[2-{[3-chloro-5-(trifluoromethyl)pyridin-2-yl]oxy}-4-(2-methoxyethoxy)phenyl]propyl}benzenesulfonamide] | 94 to 95 °C |
| COCCOc1ccc(CCCNS(=O)(=O)Cc2ccccc2)c(Oc2ncc(C(F)(F)F)cc2Cl)c1 [Example 19, N-{3-[2-{[3-chloro-5-(trifluoromethyl)pyridin-2-yl]oxy}-4-(2-methoxyethoxy)phenyl]propyl}-1-phenylmethanesulfonamide] | 97 to 100 °C |
| COCCOc1ccc(CCCNS(=O)(=O)CCCc2ccccc2)c(Oc2ncc(C(F)(F)F)cc2Cl)c1 [Example 21, N-{3-[2-{[3-chloro-5-(trifluoromethyl)pyridin-2-yl]oxy}-4-(2-methoxyethoxy)phenyl]propyl}-3-phenylpropane-1-sulfonamide] | 101.8 to 102 °C |
| COCCOc1ccc(CCCNS(=O)(=O)c2ccc(Cl)cc2)c(Oc2ncc(C(F)(F)F)cc2Cl)c1 [Example 22, 4-chloro-N-{3-[2-{[3-chloro-5-(trifluoromethyl)pyridin-2-yl]oxy}-4-(2-methoxyethoxy)phenyl]propyl}benzenesulfonamide] | 111 to 113 °C |
| COCCOc1ccc(CCCNS(=O)(=O)c2cccc(Cl)c2)c(Oc2ncc(C(F)(F)F)cc2Cl)c1 [Example 24, 3-chloro-N-{3-[2-{[3-chloro-5-(trifluoromethyl)pyridin-2-yl]oxy}-4-(2-methoxyethoxy)phenyl]propyl}benzenesulfonamide] | 110 to 114 °C |
| CCCCCS(=O)(=O)NC/C=C/c1ccc(OCCOC)cc1Oc1ncc(C(F)(F)F)cc1Cl [Example 27, N-{(2E)-3-[2-{[3-chloro-5-(trifluoromethyl)pyridin-2-yl]oxy}-4-(2-methoxyethoxy)phenyl]-2-propen-1-yl}pentane-1-sulfonamide] | 106 to 106.5 °C |
| COCCOc1ccc(CCCNS(=O)(=O)c2ccccc2[N+](=O)[O-])c(Oc2ncc(C(F)(F)F)cc2Cl)c1 [Example 29, N-{3-[2-{[3-chloro-5-(trifluoromethyl)pyridin-2-yl]oxy}-4-(2-methoxyethoxy)phenyl]propyl}-2-nitrobenzenesulfonamide] | 125.5 to 126 °C |
| CC(C)Oc1cc(CCCNC(=O)NS(=O)(=O)c2ccccc2)n(Cc2ccc(Cl)cc2Cl)n1 [Example 39, N-[({3-[1-(2,4-dichlorobenzyl)-3-isopropoxy-1H-pyrazol-5-yl]propyl}amino)carbonyl]benzenesulfonamide] | 149 °C |
| CCCCCS(=O)(=O)NC(=O)CCc1ccc(OC(C)C)cc1OCc1ccc(Cl)cc1Cl [Example 42, 3-{2-[(2,4-dichlorobenzyl)oxy]-4-isopropoxyphenyl}-N-(pentylsulfonyl)propanamide] | 120 to 120.5 °C |
| COCCOc1ccc(CCCOC(=O)N2CCOCC2)c(Oc2ncc(C(F)(F)F)cc2Cl)c1 [Example 48, 3-[2-{[3-chloro-5-(trifluoromethyl)pyridin-2-yl]oxy}-4-(2-methoxyethoxy)phenyl]propyl morpholine-4-carboxylate] | 82.3 to 82.4 °C |

Second part, the molecule after the results:

| melting point | Structure (SMILES) |
| --- | --- |
| 94 to 96 °C | CCCCS(=O)(=O)NC(=O)OCCCc1ccc(OCCOC)cc1Oc1ncc(C(F)(F)F)cc1Cl.O (hydrate or solvate) |
| 129 to 129.5 °C | CC(C)Oc1ccc(CCC(=O)NS(=O)(=O)c2ccccc2)c(Oc2ncc(C(F)(F)F)cc2Cl)c1 [Example 4, 3-(2-{[3-chloro-5-(trifluoromethyl)pyridin-2-yl]oxy}-4-isopropoxyphenyl)-N-(phenylsulfonyl)propanamide] |
| 118 to 120 °C | COCCOc1ccc(CCC(=O)NS(=O)(=O)c2ccc(OC)cc2)c(Oc2ncc(C(F)(F)F)cc2Cl)c1 [Example 7, 3-[2-{[3-chloro-5-(trifluoromethyl)pyridin-2-yl]oxy}-4-(2-methoxyethoxy)phenyl]-N-[(4-methoxyphenyl)sulfonyl]propanamide] |
| 136 to 138 °C | COCCOc1ccc(CCC(=O)NS(=O)(=O)c2ccc(F)cc2)c(Oc2ncc(C(F)(F)F)cc2Cl)c1 [Example 11, 3-[2-{[3-chloro-5-(trifluoromethyl)pyridin-2-yl]oxy}-4-(2-methoxyethoxy)phenyl]-N-[(4-fluorophenyl)sulfonyl]propanamide] |
| 80 to 82 °C | CCCCCS(=O)(=O)NCC(C)Cc1ccc(OCCOC)cc1Oc1ncc(C(F)(F)F)cc1Cl (centres unmarked) [Example 41, N-{3-[2-{[3-chloro-5-(trifluoromethyl)pyridin-2-yl]oxy}-4-(2-methoxyethoxy)phenyl]-2-methylpropyl}pentane-1-sulfonamide] |
| 130 to 132 °C | COCCOc1ccc(CCC(=O)NS(=O)(=O)CCC(C)C)c(Oc2ncc(C(F)(F)F)cc2Cl)c1 [Example 43, 3-[2-{[3-chloro-5-(trifluoromethyl)pyridin-2-yl]oxy}-4-(2-methoxyethoxy)phenyl]-N-[(3-methylbutyl)sulfonyl]propanamide] |
| 123 to 125 °C | CCN(CC)C(=O)COc1ccc(CCC(=O)NS(=O)(=O)CCC(C)C)c(Oc2ncc(C(F)(F)F)cc2Cl)c1 [Example 45, 3-{2-{[3-chloro-5-(trifluoromethyl)pyridin-2-yl]oxy}-4-[2-(diethylamino)-2-oxoethoxy]phenyl}-N-[(3-methylbutyl)sulfonyl]propanamide] |
